Laboratory results: publication PMC8780964, “Evaluation of the Pharmacokinetics of the Pancreastatin Inhibitor PSTi8 Peptide in Rats: Integration of In Vitro and In Vivo Findings” (Molecules, 2022)
Entries after “also recorded” stand apart in the source; their conditions may differ. Like-named read-outs stand apart in the source and are kept apart here. Ends that are not written are not given here.

Columns and labels:
[1] = Microsomal metabolic stability study; assay type: in vitro ADME, SD rats
Method: RLM was prepared from SD rats from our lab, as previously reported. In vitro metabolic stability of PSTi8 was determined using RLM. The reaction milieu was prepared by adding 50 mM Tris buffer (pH 7.4), 40 mM MgCl2 pre-incubated at 37 °C along with RLM (0.5 mg/mL) and spiked at a concentration (5 µM) of PSTi8. The reaction was started with NADPH (1 mM) and without NADPH (negative control using Tris buffer). A total of 100 µL samples were collected at 0, 5, 15, 30, 45 and 60 min, and the reaction was quenched with liquid nitrogen. Samples were processed with the SPE procedure and analyzed using the LC-MS/MS method. Negative control was used to assess the peptide stability in the reaction milieu and the positive control (Testosterone, 25 µM) was incubated to obtain the microsomal activity.

[2] = Equilibrium solubility in SGF and SIF; assay type: physicochemical
Method: The solubility of PSTi8 peptide was conducted using the equilibrium solubility method in SGF (pH 1.2) and SIF (pH 7.4). A total of 50 mg of PSTi8 was added to silanized glass vials containing 1 mL of buffer, and incubated for 1 h at 37 °C in a shaking water bath to attain equilibrium. After incubation, the samples were centrifuged for 10 min at 12,000 g, and supernatant was processed through SPE procedure and used for LC-MS/MS analysis.

C57Bl/6 mice = conditions: mouse, in vivo; cited from earlier work
[3] = parameters: method as in PMID 31891874; conditions: i.p., mice; cited from earlier work
[4] = Dose proportionality PK study, i.p., male SD rats; conditions: for AUC(0-inf) / Cmax / Tmax / half-life: male, SD, rat, plasma, ip
Method: (§1) Male SD rats were utilized in this study and distributed into two groups (each group contained 6 animals). To each group, PSTi8 was administered i.p. at a dose of 10 and 20 mg/kg in rats.
(§2) After dosing in rats, blood (250 µL) samples were collected in EDTA containing microcentrifuge tubes at 0.08, 0.16, 0.33, 0.50, 0.75, 1, 2, 3, 4, 5 and 6 h time points. Plasma was separated from the blood after centrifugation and kept in a −80 °C freezer for LC-MS/MS analysis.
(§3) The PK parameters of PSTi8 were estimated with a one-compartmental PK model in Phoenix WinNonlin. […] The PK parameters include the elimination constant (K10), absorption constant (K01), Tmax, elimination half-life (K10-HL), absorption half-life (K01-HL), Cmax, AUC (stands for model derived AUC0-∞), CL/F, mean residence time (MRT) and Vd/F. The bioavailability of PSTi8 was determined using the ratio between the AUC from i.p. or s.c. and i.v. routes, after normalizing the dose.

in vivo [5] = conditions: female, SD, rat, ip, 5 mg/kg
Method: (§4) Female SD rats were utilized and distributed into two groups (each group contained 6 animals). To each group, a 5 mg/kg dose of PSTi8 was administered i.v. and i.p. for PK determination.
as §2
(§5) The PK parameters of PSTi8 were estimated with a one-compartmental PK model in Phoenix WinNonlin. The i.p. and s.c. PK were best described by a one-compartment first-order PK model without lag time. The i.v. PK was well explained by a one-compartment model with a bolus input and first-order elimination rate. The PK parameters include the elimination constant (K10), absorption constant (K01), Tmax, elimination half-life (K10-HL), absorption half-life (K01-HL), Cmax, AUC (stands for model derived AUC0-∞), CL/F, mean residence time (MRT) and Vd/F. The bioavailability of PSTi8 was determined using the ratio between the AUC from i.p. or s.c. and i.v. routes, after normalizing the dose.

[6] = Plasma protein binding, modified charcoal adsorption method; assay type: in vitro ADME; conditions: rat plasma
Method: The protein binding study of the PSTi8 peptide was conducted in rat plasma using the modified charcoal adsorption method. The suspension of dextran-coated charcoal (0.66%) was prepared in the DPBS buffer (pH 7.4) and stirred overnight (18 h), before the study. PSTi8 (2 µM and 5 µM) was prepared in 2.5 mL rat plasma and pre-incubated at 37 ± 0.5 °C for 15 min in a shaking water bath. The exact volume of the charcoal suspension, the same as the plasma, was centrifuged at 3000 g for 15 min to separate DPBS. The supernatant was decanted and the pre-incubated plasma was added to the charcoal pellet-containing tubes. Plasma-containing charcoal tubes were incubated under continuous stirring up to 4 h. A total of 200 µL samples were collected at the time points of 0, 5, 10, 20, 30, 45, 60, 90, 120 and 180 min, and then centrifuged at 11,000 g for 2.5 min. A total of 100 µL supernatant of the centrifuged sample was separated, extracted using SPE and analyzed with LC-MS/MS. The % peptide remaining in the supernatant plasma sample versus time points data was evaluated using the i.v. bolus two-compartment analysis model on Phoenix 6.3 WinNonlin (Pharsight Corporation, Saint Louis, MO, USA). The model is defined by the bi-exponential Equation (1):(1) B(t)=A1exp(−αt)+A2exp(−βt) where B(t) % is the bound peptide remaining at time t and where A1, A2, α and β are constants.

[7] = Blood–plasma partitioning study (KRBC/PL)
Method: Fresh blood was collected from SD rats and used for the blood–plasma partitioning study. The blood was pre-incubated in a shaking water bath for 10 min at 37 ± 0.5 °C. […] During the study, the fresh rat plasma was separated from the same batch of whole blood. During the incubation time course, 250 µL aliquots of incubated whole blood samples were collected at different time points (0, 15, 30 and 60 min) and centrifuged at 10,000 g for 5 min at RT to obtain the plasma. At each time point, 100 µL aliquot of the reference plasma sample was collected. Both, 100 µL aliquot of generated plasma and reference plasma were processed and analyzed using the LC-MS/MS method. For the determination of hematocrit (Hc), heparinized whole blood (1.0 mL) was taken in a hematocrit tube and centrifuged at 2000 g for 30 min. The Hc for the whole blood was calculated by using Equation (2) [21, 22].

in vivo [8] = conditions: male, SD, rat, ip
Method: as §1, §2, §3

[9] = Stability in rat plasma in different storage conditions (bioanalytical validation); assay type: in vitro ADME
Method: A QTRAP-4000 AB Sciex (SCIEX, Concord, ON, Canada) mass spectrometer using an electrospray ionization source tandem with the Shimadzu UFLC system was utilized for the quantitative analysis. Quantification was performed for PSTi8 and IS with positive ionization mode, using prominent selected reaction monitoring transitions as 607.80/771.20 and 342.20/229.10 m/z, respectively. The chromatographic separation of PSTi8 and IS was accomplished on a Phenomenex Aqua 5µ 125A (250 × 4.6 mm) column using an isocratic mode of mobile phase (methanol:0.1 % formic acid, 50:50 % v/v) with 0.4 mL/min flow rate. The analysis run time was 10 min and the injection volume was 10 μL for each sample. Analyst 1.6 software was used to regulate the LC-MS/MS instrument and for data quantification. The plasma sample extraction involved the SPE procedure using MAX cartridges, as previously described. The LC-MS/MS bioanalytical assay of PSTi8 peptide was validated in rat plasma as per the USFDA bioanalytical method validation guidance. The bioanalytical method development and validation of PSTi8 in mice plasma was recently reported. The bioanalytical validation and stability studies were conducted in rat plasma, as described earlier.

[10] = Gender difference PK study, i.v. and i.p., female SD rats
Method: as §4, §2, §5

in vivo [11] = conditions: male, SD, rat, 5 mg/kg
Method: (§6) Rats were distributed into three groups and each group contained 6 animals.
as §2
(§7) The i.p. and s.c. PK were best described by a one-compartment first-order PK model without lag time. The i.v. PK was well explained by a one-compartment model with a bolus input and first-order elimination rate. The PK parameters include the elimination constant (K10), absorption constant (K01), Tmax, elimination half-life (K10-HL), absorption half-life (K01-HL), Cmax, AUC (stands for model derived AUC0-∞), CL/F, mean residence time (MRT) and Vd/F. The bioavailability of PSTi8 was determined using the ratio between the AUC from i.p. or s.c. and i.v. routes, after normalizing the dose.

Plasma stability study = assay type: in vitro ADME
Method: Fresh rat plasma (1 mL) was used and pre-incubated in a shaking water bath at 37 °C for 10 min. PSTi8 was added to rat plasma at a final concentration of 1 or 5 µM and then incubated for […] at 37 °C in a shaking water bath. A total of 100 µL samples were aliquoted at predetermined time points (0, 5, 15, 30, 60, 90, 120 and 240 min), followed by SPE processing and analyzed using the validated LC-MS/MS method. The plasma stability was determined as the % drug remaining at different time points relative to the drug at 0 min [19].

[12] = PK and bioavailability after i.v., i.p. and s.c. administration in male SD rats; conditions: for K01 (absorption constant) / K10 (elimination constant) / half-life: male SD rats
Method: as §6, §2, §7

[13] = female, SD, rat, plasma, ip, 5 mg/kg
[14] = female, SD, rat, plasma, iv, 5 mg/kg
[15] = male, SD, rat, plasma, ip, 5 mg/kg
[16] = male, SD, rat, plasma, iv, 5 mg/kg
[17] = male, SD, rat, plasma, sc, 5 mg/kg

C[C@]12CC[C@H]3[C@@H](CCC4=CC(=O)CC[C@@]43C)[C@@H]1CC[C@@H]2O [testosterone, reference compound]
half-life of positive control ([1]; 25 µM, RLM): within the acceptable in-house limits

PEGKGEQEHSQQKEEEEEMAV-NH2 [PSTi8]
solubility thermodynamic at 1 h ([2]; simulated gastric fluid (SGF) pH 1.2, 37 °C): 9.3 mg/mL
solubility thermodynamic at 1 h ([2]; simulated intestinal fluid (SIF) pH 7.4, 37 °C): 25.8 mg/mL
toxicity finding (C57Bl/6 mice): safe and non-toxic
bioavailability [3]: 52%
K01 (absorption constant) ([4]; i.p. 10 mg/kg, male SD rats): 4.89 ± 1.74 h⁻¹
K10 (elimination constant) ([4]; i.p. 10 mg/kg, male SD rats): 1.33 ± 0.60 h⁻¹
K01 (absorption constant) ([4]; i.p. 20 mg/kg, male SD rats): 4.94 ± 0.97 h⁻¹
K10 (elimination constant) ([4]; i.p. 20 mg/kg, male SD rats): 1.26 ± 0.18 h⁻¹
PK pattern in dose proportionality study ([4]; i.p. 10 and 20 mg/kg, male SD rats): non-linear PK; also recorded: non-linear pharmacokinetics
AUC(0-inf) ([4]; 10 mg/kg): 32400 ng·h/mL
Cmax ([4]; 10 mg/kg): 24300 ng/mL
Tmax ([4]; 10 mg/kg): 22.8 min
half-life ([4]; 10 mg/kg, K01-HL (absorption half-life), i.p. 10 mg/kg, male SD rats): 9 ± 3 min
half-life ([4]; 10 mg/kg, K10-HL (elimination half-life), i.p. 10 mg/kg, male SD rats): 35.4 ± 13.8 min
AUC(0-inf) ([4]; 20 mg/kg): 111000 ng·h/mL
Cmax ([4]; 20 mg/kg): 85600 ng/mL
Tmax ([4]; 20 mg/kg): 22.8 min
half-life ([4]; 20 mg/kg, K01-HL (absorption half-life), i.p. 20 mg/kg, male SD rats): 8.4 ± 1.8 min
half-life ([4]; 20 mg/kg, K10-HL (elimination half-life), i.p. 20 mg/kg, male SD rats): 33.6 ± 5.4 min
CL/F (in vivo [5]): 9.5 mL/min/kg
Vd/F (in vivo [5]): 0.26 ± 0.01 L/kg
fraction unbound at 2 µM ([6]; 2 µM): 0.264
fraction unbound at 5 µM ([6]; 5 µM): 0.307
fraction unbound ([6]; summary in abstract): < 0.31
RBC:plasma partition coefficient (KRBC/PL) ([7]; 0.206 µM, time not given): 2.46 ± 0.44
blood–plasma partitioning ([7]; summary in abstract): > 2
CL/F (in vivo [8]; 10 mg/kg): 5.17 mL/min/kg
Vd/F (in vivo [8]; 10 mg/kg): 0.26 ± 0.09 L/kg
CL/F (in vivo [8]; 20 mg/kg): 3.17 mL/min/kg
Vd/F (in vivo [8]; 20 mg/kg): 0.15 ± 0.03 L/kg
Accuracy (%) of stability sample ([9]; 0 h (for all), nominal 30 ng/mL): 102.34%
Accuracy (%) of stability sample ([9]; 0 h (for all), nominal 400 ng/mL): 101.56%
Accuracy (%) of stability sample ([9]; 0 h (for all), nominal 800 ng/mL): 101.70%
Accuracy (%) of stability sample ([9]; Autosampler (4 °C, 12 h), nominal 30 ng/mL): 112.60%
Accuracy (%) of stability sample ([9]; Autosampler (4 °C, 12 h), nominal 400 ng/mL): 94.13%
Accuracy (%) of stability sample ([9]; Autosampler (4 °C, 12 h), nominal 800 ng/mL): 99.90%
Accuracy (%) of stability sample ([9]; Bench-top (2 h), nominal 30 ng/mL): 96.27%
Accuracy (%) of stability sample ([9]; Bench-top (2 h), nominal 400 ng/mL): 96.17%
Accuracy (%) of stability sample ([9]; Bench-top (2 h), nominal 800 ng/mL): 106.70%
Accuracy (%) of stability sample ([9]; Bench-top (6 h), nominal 30 ng/mL): 103.47%
Accuracy (%) of stability sample ([9]; Bench-top (6 h), nominal 400 ng/mL): 93.00%
Accuracy (%) of stability sample ([9]; Bench-top (6 h), nominal 800 ng/mL): 97.97%
Accuracy (%) of stability sample ([9]; Long term (-80°C, 30 days), nominal 30 ng/mL): 110.13%
Accuracy (%) of stability sample ([9]; Long term (-80°C, 30 days), nominal 400 ng/mL): 102.87%
Accuracy (%) of stability sample ([9]; Long term (-80°C, 30 days), nominal 800 ng/mL): 108.03%
Accuracy (%) of stability sample ([9]; Three freeze-thaw cycles, nominal 30 ng/mL): 101.30%
Accuracy (%) of stability sample ([9]; Three freeze-thaw cycles, nominal 400 ng/mL): 106.30%
Accuracy (%) of stability sample ([9]; Three freeze-thaw cycles, nominal 800 ng/mL): 108.77%
stability in rat plasma with diverse storage conditions (in words) ([9]; storage conditions of Table S2): stable
stability in rat liver microsomes (in words) ([1]; 5 µM, RLM 0.5 mg/mL, NADPH 1 mM): stable; also recorded: high stability
degradation in negative control experiment ([1]; 5 µM, RLM, without NADPH): no degradation
AUC [10, 13]: 9980 ± 523 ng·h/mL
AUC(0-inf) [10, 13]: 8820 ± 589 ng·h/mL
Cmax [10, 13]: 7000 ± 216 ng/mL
Tmax [10, 13]: 28.8 min
bioavailability [10, 13]: 91.9 ± 6.14%
half-life [10, 13]: 19.2 ± 1.2 min
AUC(0-inf) [10, 14]: 9590 ± 1750 ng·h/mL
Cmax [10, 14]: 42600 ng/mL
MRT [10, 14]: 13.2 ± 1.2 min
half-life [10, 14]: 9.6 ± 1.2 min
K01 (absorption constant) ([10]; i.p. 5 mg/kg, female SD rats): 2.14 ± 0.12 h⁻¹
K10 (elimination constant) ([10]; i.p. 5 mg/kg, female SD rats): 2.19 ± 0.18 h⁻¹
K10-HL (elimination half-life) ([10]; i.p. 5 mg/kg, female SD rats): 0.32 ± 0.02 h
K10 (elimination constant) ([10]; i.v. 5 mg/kg, female SD rats): 4.50 ± 0.48 h⁻¹
gender difference in PK parameters and bioavailability ([10]; male vs female SD rats, 5 mg/kg i.p. and i.v., 5 mg/kg): no gender differences; also recorded: no significant difference
CL/F (in vivo [11]; ip): 10.3 mL/min/kg
Vd/F (in vivo [11]; ip): 0.39 ± 0.06 L/kg
CL/F (in vivo [11]; sc): 12.8 mL/min/kg
Vd/F (in vivo [11]; sc): 0.46 ± 0.09 L/kg
stability in rat plasma (in words) (Plasma stability study): high stability; also recorded: stable
remaining at 4 h, 1 µM (Plasma stability study; 1 µM, at 4 h, rat plasma, 37 °C, read-out: plasma stability (% drug remaining)): 88.8 ± 3.39%
remaining at 4 h, 5 µM (Plasma stability study; 5 µM, at 4 h, rat plasma, 37 °C, read-out: plasma stability (% drug remaining)): 90.6 ± 6.65%
K01 (absorption constant) ([12]; i.p. 5 mg/kg): 2.90 ± 0.89 h⁻¹
K10 (elimination constant) ([12]; i.p. 5 mg/kg): 1.63 ± 0.33 h⁻¹
K10 (elimination constant) ([12]; i.v. 5 mg/kg): 3.79 ± 2.19 h⁻¹
AUC(0-inf) [12, 15]: 8100 ± 1040 ng·h/mL
Cmax [12, 15]: 6050 ± 348 ng/mL
Tmax [12, 15]: 28.8 min
bioavailability [12, 15]: 95 ± 12.2%
half-life ([12]; male, SD, rat, plasma, ip, 5 mg/kg, K01-HL (absorption half-life), i.p. 5 mg/kg): 15.6 ± 5.4 min
half-life ([12]; male, SD, rat, plasma, ip, 5 mg/kg, K10-HL (elimination half-life), i.p. 5 mg/kg): 26.4 ± 6 min
AUC(0-inf) [12, 16]: 8530 ± 1600 ng·h/mL
Cmax [12, 16]: 30200 ± 14600 ng/mL
MRT [12, 16]: 21.6 ± 15.6 min
half-life ([12]; male, SD, rat, plasma, iv, 5 mg/kg, K10-HL (elimination half-life), i.v. 5 mg/kg): 15 ± 10.8 min
AUC(0-inf) [12, 17]: 6690 ± 1510 ng·h/mL
Cmax [12, 17]: 4110 ± 888 ng/mL
Tmax [12, 17]: 36 min
bioavailability [12, 17]: 78.5 ± 17.7%
half-life ([12]; male, SD, rat, plasma, sc, 5 mg/kg, K01-HL (absorption half-life), s.c. 5 mg/kg): 24.6 ± 0.6 min
half-life ([12]; male, SD, rat, plasma, sc, 5 mg/kg, K10-HL (elimination half-life), s.c. 5 mg/kg): 25.2 ± 0.24 min
K01 (absorption constant) ([12]; s.c. 5 mg/kg): 1.68 ± 0.02 h⁻¹
K10 (elimination constant) ([12]; s.c. 5 mg/kg): 1.66 ± 0.01 h⁻¹
